In the NIST ThermoML archive (doi:10.1016/j.jct.2015.03.002):

Conditions: Liquid

CCCC[N+]1(C)CCCC1.FC(F)(F)C(F)(F)[P-](F)(F)(F)(C(F)(F)C(F)(F)F)C(F)(F)C(F)(F)F
viscosity [mPa·s]
Conditions | 10000 kPa | 15000 kPa | 25000 kPa | 50000 kPa | 75000 kPa | 100000 kPa | 125000 kPa | 150000 kPa
303.15 K, Concentric cylinders viscometry | 198.9 | 221.8 | 273.1 | 465.5 | 791.6 | – | – | –
303.15 K, Falling or rolling sphere viscometry | 189.5 | 212.4 | 265.5 | 454.7 | 765.1 | 1274 | 2111 | 3485
313.15 K, Concentric cylinders viscometry | 118.9 | 131.3 | 162.6 | 263.5 | 434.8 | – | – | –
313.15 K, Falling or rolling sphere viscometry | 113.5 | 124.7 | 150.6 | 241.3 | 386.8 | 620.3 | 995.1 | 1597
323.15 K, Concentric cylinders viscometry | – | – | – | – | 234.7 | – | – | –
323.15 K, Falling or rolling sphere viscometry | 73.4 | 80 | 94.9 | 145.4 | 222.6 | 340.5 | 520.9 | 797
333.15 K, Falling or rolling sphere viscometry | 48 | 52 | 61 | 90.7 | 134.3 | 198.1 | 291.7 | 429.1
343.15 K, Falling or rolling sphere viscometry | 33.9 | 36.5 | 42.2 | 60.5 | 86.9 | 124.5 | 178.5 | 255.8
353.15 K, Falling or rolling sphere viscometry | 24.7 | 26.6 | 30.7 | 43.4 | 60.6 | 84.1 | 116 | 159.3

CCCC[N+]1(C)CCCC1.O=S(=O)([O-])C(F)(F)F [1-butyl-1-methylpyrrolidinium trifluoromethanesulfonate]
viscosity [mPa·s]
Conditions | 10000 kPa | 15000 kPa | 25000 kPa | 50000 kPa | 75000 kPa | 100000 kPa | 125000 kPa | 150000 kPa
303.15 K, Concentric cylinders viscometry | 147.2 | 158.4 | 181.8 | 249.5 | 341.1 | – | – | –
303.15 K, Falling or rolling sphere viscometry | 144.8 | 154.3 | 174.9 | 236.9 | 317.7 | 422.8 | 559.5 | 737.7
313.15 K, Concentric cylinders viscometry | – | – | – | 148.1 | 202.2 | – | – | –
313.15 K, Falling or rolling sphere viscometry | 89.2 | 94.8 | 106.9 | 142.7 | 188.1 | 245.4 | 318.1 | 410.1
323.15 K, Falling or rolling sphere viscometry | 58.9 | 62.5 | 70.2 | 92.3 | 119.5 | 153 | 194.1 | 244.7
333.15 K, Falling or rolling sphere viscometry | 41.7 | 43.9 | 48.6 | 62.3 | 79 | 99.6 | 124.9 | 156
343.15 K, Falling or rolling sphere viscometry | 29.9 | 31.4 | 34.7 | 44.2 | 55.7 | 69.6 | 86.4 | 106.8
353.15 K, Falling or rolling sphere viscometry | 22.5 | 23.7 | 26.1 | 32.7 | 40.5 | 49.4 | 59.9 | 72

CC(C)CCCC(C)CCCC(C)CCCCC(C)CCCC(C)CCCC(C)C (configuration not stated) [2,6,10,15,19,23-hexamethyltetracosane]
viscosity [mPa·s], Falling or rolling sphere viscometry
Conditions | 10000 kPa | 15000 kPa | 25000 kPa | 50000 kPa | 75000 kPa | 100000 kPa | 125000 kPa | 150000 kPa
303.15 K | 27.4 | 30.8 | 38.2 | 62.7 | 98.5 | 150.8 | 227.4 | 339.5
313.15 K | 18.4 | 20.4 | 24.8 | 39.1 | 59.5 | 88.7 | 130.3 | 189.8
323.15 K | 13 | 14.3 | 17.1 | 26.1 | 38.7 | 56.3 | 80.9 | 115.4
333.15 K | 9.2 | 10.1 | 12.1 | 18.2 | 26.5 | 37.8 | 53.2 | 74
343.15 K | 7 | 7.6 | 9 | 13.3 | 19 | 26.7 | 37 | 50.8
353.15 K | 5.4 | 5.9 | 6.9 | 10.1 | 14.2 | 19.5 | 26.4 | 35.5
